US11446314B2, “Immunoablative therapies” (AVM Biotechnology LLC, priority 2018, dated 2022)
“Also recorded” adds a separate entry of the source.

How the values were obtained:
germinal centers [1] = conditions: rats IV or PO 20, 40, 80 mg/kg (HED 3.23, 6.45, 12.9 mg/kg), 48 hours
Method: Column plots of the area per spleen of BCL-6 staining of 5 micron fixed spleen sections as a measure of germinal center numbers given as average per section are shown.
Formalin-fixed spleens were cross-sectioned in 5 pieces, trimmed and embedded in paraffin, sectioned and stained with hematoxylin and eosin (H&E). Measurements of the periarteriolar lymphoid sheath (PAL) diameter and the width of the marginal zone (MZ) in areas of white pulp that had PAL with the greatest diameter were measured using an ocular micrometer. BCL-6 immunohistochemical staining in rat spleens was evaluated to determine GC area using automated image analysis methods.

lymphocytes [2] = experiment: Lymphodepletion in C57B1 female mice; assay type: in vivo, mouse; conditions: oral, HED 12, 15, 18 mg/kg tested
marginal zone = conditions: rats IV or PO 20, 40, 80 mg/kg (HED 3.23, 6.45, 12.9 mg/kg), 48 hours
Method: Formalin-fixed spleens were cross-sectioned in 5 pieces, trimmed and embedded in paraffin, sectioned and stained with hematoxylin and eosin (H&E). Measurements of the periarteriolar lymphoid sheath (PAL) diameter and the width of the marginal zone (MZ) in areas of white pulp that had PAL with the greatest diameter were measured using an ocular micrometer.

[3] = Double-blind controlled horse trial; assay type: in vivo; conditions: horses, acute high dose, out to 70 days
B lymphocytes = experiment: Treatment of patients with autoimmune diseases (Examples 5 and 9); assay type: in vivo, human; conditions: patient with an autoimmune disease, acute high dose
Method: Acute high dose prednisone doses range from about 19 mg/kg to about 150 mg/kg, with doses between about 56 mg/kg and about 112 mg/kg being preferred, with a repeat (second) administration of this dose 24 hours later and an optional repeat (third) administration of this dose 48-72 hours after the initial dose.

lymphocytes [4] = experiment: Flow cytometry of blood cells in human patients before and 48 hours after oral 3 mg/kg dexamethasone base
Description: FIG. 14. […] Each patient's pre-treatment values are connected to post-treatment values by a connecting line. CD4+ cells are also CD3+. CD8+ cells are also CD3+.
FIG. 15. […] Each patient's pre-treatment values are connected to post-treatment values by a connecting line. Tregs are identified by being CD3+CD4+CD25+FoxP3+. B lymphocytes are identified by being CD3−CD19+.
FIG. 16. […] Each patient's pre-treatment values are connected to post-treatment values by a connecting line. NK cells are identified by being CD3−CD16/56+. HSCs are identified by being CD34+CD38−.
(§1) Blood was drawn before drug treatment and 48 hours post-treatment for CBC analysis and flow cytometry to determine lymphocyte and other blood cell populations. Serum was analyzed for cytokine levels.

[5] = test system: CD4+, CD8+, Tregs and B cells; experiment: Preliminary dose escalation studies in naïve mouse and rat models; assay type: in vivo
spleen cellularity = conditions: cited from earlier work
IL-2, IL-15, IL-6 = test system: IL-2, IL-15, IL-6
Method: as §1

[6] = Clinical chemistries in mice; assay type: in vivo, mouse
[7] = test system: peripheral blood lymphocytes
[8] = test system: bone marrow mesenchymal stem cells; experiment: Horse sternal bone marrow MSC number and trilineage differentiation; assay type: in vivo; conditions: horses, 6 mg/kg HED, one hour IV infusion, 48 hours
hematopoietic stem cells = experiment: Live hematopoietic stem cells in naïve mice; conditions: 48 hours, low or high doses vs placebo
germinal centers [9] = experiment: FITC-PNA staining of germinal centers in mouse spleen sections; assay type: in vivo; conditions: for HED dose from which germinal centers are reduced: acute dose, about; for Germinal Center staining intensity in spleen: 48 hours before spleen harvest
Method: FIG. 2. […] A graph of column plots of average Germinal Center staining intensity measured using immunofluorescent staining of fresh thick spleen sections stained with FITC-PNA is shown. Immunofluorescent intensity was calculated using thresholding and MetaMorph Image Analysis. Columns are average plus SEM.
The spleens were removed, weighed wet, and then fixed in 10% formalin. Subsequently the spleens were sectioned via proprietary methods and then incubated with FITC-PNA at 4 degC for 24 hours, washed, placed on slides and immunofluorescent images were captured. Metamorph software was used to quantify the immunofluorescent signal.

[10] = test system: peripheral blood T and B lymphocytes; conditions: single oral 0.24 mg/kg dose; cited from earlier work
[11] = test system: bone marrow mesenchymal stem cells; experiment: Human bone marrow MSC number by CFU-F; conditions: oral 3 mg/kg dexamethasone base, 48 hours, vs 31 historical controls
pemphigus = conditions: 100 mgs by 2 hour IV infusion daily for 3 days, every 28 days until cure; cited from earlier work
[12] = pharmacodynamic (biologic); cited from earlier work
[13] = test system: spleen weights or germinal centers; conditions: mice, po daily for 13 weeks; cited from earlier work
RBC = conditions: doses of about 24 mg/50 kg; cited from earlier work
[14] = oral 3 mg/kg dexamethasone base, 48 hours

C[C@@H]1C[C@H]2[C@@H]3CCC4=CC(=O)C=C[C@]4(C)[C@@]3(F)[C@@H](O)C[C@]2(C)[C@@]1(O)C(=O)CO [dexamethasone]
germinal center area (BCL-6 staining) in spleen (germinal centers [1]): reduced at all dexamethasone doses
dose above which lymphoablation is completely evident (lymphocytes [2]): above 18 mg/kg
marginal zone area (width) in spleen (marginal zone): reduced at all dexamethasone doses
adverse side effects [3]: no adverse side effects were observed
reduction of B lymphocyte numbers (B lymphocytes): greater than 90%
reduction of memory B cell populations (B lymphocytes): greater than 90%
patients who showed lymphocytosis (lymphocytes [4]; 3 mg/kg HED): 50%
hematopoietic stem cells (CD34+CD38−) (lymphocytes [4]; [14]): spared
patients who depleted CD3, CD4 and CD8 positive lymphocytes (lymphocytes [4]; [14]): 2 of 4
patients who depleted NK cells (lymphocytes [4]; [14]): 3 of 4
patients who depleted Tregs and B lymphocytes (lymphocytes [4]; [14]): 1 of 4
patients with lymphocytosis response in CD3 and CD4 lymphocytes (lymphocytes [4]; oral 3 mg/kg, 48 hours): 2 of 4
patients with lymphocytosis response in CD8, B lymphocytes and NK cells (lymphocytes [4]; oral 3 mg/kg, 48 hours): 1 of 4
patients who responded with lymphodepletion (lymphocytes [4]; oral 3 mg/kg, 48 hours, un-normalized flow cytometry data): 2 of the 4
effects of oral dosing compared to IV dosing ([5]; acute high dose): comparable effects
reduction in CD4+, CD8+, Tregs and B cells population ([5]; high doses, 48 hours after administration): ~98%
lymphodepletion ([5]; high-dose dexamethasone, naïve mouse and rat models): complete lymphodepletion
lymphodepletion in comparison to total body irradiation (spleen cellularity; HED 0.8 mg/kg on day −6, −4, −2): lymphodepleted equivalently to 5Gy TBI
reduced spleen cellularity (spleen cellularity; IP 10 mg/kg (HED 0.81 mg/kg) on day −6, −4, −2 before ACT): 99%
dose at which plasma IL-2 and IL-15 cytokine elevations are observed (IL-2, IL-15, IL-6; dexamethasone base, HED, about): ≥ 3 mg/kg
patients with elevated levels of IL-2 (IL-2, IL-15, IL-6; [14]): 3 of 4
patients with elevated levels of IL-15 (IL-2, IL-15, IL-6; [14]): 4 of 4
patients with increased serum IL-2 and/or IL-15 levels (IL-2, IL-15, IL-6; [14]): 100%
levels of plasma IL-2 and IL-15 cytokines (IL-2, IL-15, IL-6; small number of human osteoarthritis patients, acute high dose): elevates
glucose level ([6]; after acute high dose dexamethasone): not elevated over the normal range
clinical chemistry levels including cholesterol and total protein ([6]; mice, acute oral HED doses 6-12 mg/kg): do not elevate clinical chemistry levels out of normal range
CD3+ T lymphocytes ([7]; IP 10 mg/kg (HED 0.81 mg/kg) on day −6, −4, −2, control 3370): 2441 live events
B lymphocytes (CD3−CD19+ cells) in the peripheral blood ([7]; IP 10 mg/kg (HED 0.81 mg/kg) on day −6, −4, −2, vehicle control 10680): 3733 live events
reduction of B lymphocytes ([7]; IP 10 mg/kg (HED 0.81 mg/kg) on day −6, −4, −2, vs vehicle, significant): 65%
CD3+CD4+CD25+FoxP3+ Tregs ([7]; same dosing, control 198): 70 live events
CD3+CD8 T lymphocytes ([7]; same dosing, control 1318): 1277 live events
CD3+CD4+ T lymphocytes ([7]; same dosing, control 1779): 902 live events
sternal BM MSC stem cell number [8]: doubled
number of live hematopoietic stem cells (hematopoietic stem cells): did not significantly alter
HED dose from which germinal centers are reduced (germinal centers [9]): ≥ 6 mg/kg
HED dose from which germinal centers are reduced (germinal centers [9]; listed as Dexamethasone): ≥ 3 mg/kg
Germinal Center staining intensity in spleen (germinal centers [9]; mice, HED 6 mg/kg): Germinal center reduction is apparent
Germinal Center staining intensity in spleen (germinal centers [9]; mice, HED 9 and 12 mg/kg): not significantly reduced until HED of 9 and 12 mg/kg doses; also recorded: significantly reduced
FITC-PNA immunofluorescence (germinal centers) in spleen (germinal centers [9]; mice, IP HED 9.3 mg/kg dexamethasone base, 96 hours before spleen harvest): almost no immunofluorescent signal
suppression of peripheral blood T and B lymphocytes [10]: 80%
time at which recovery begins [10]: 12 h
time to normal levels [10]: ≤ 24 h
ileac crest bone marrow MSC number (CFU-F per ml) [11]: almost two fold; also recorded: about twice as high
relapse rate (pemphigus): 15%

C[C@]12C=CC(=O)C=C1CC[C@@H]1[C@@H]2C(=O)C[C@@]2(C)[C@H]1CC[C@]2(O)C(=O)CO [prednisone]
biologic half-life [12]: about 20 hours
dose above which spleen weights or germinal centers are significantly impacted [13]: over 2.5 mg/kg
reduction of B lymphocyte numbers (B lymphocytes): greater than 90%
reduction of memory B cell populations (B lymphocytes): greater than 90%

C[C@H]1C[C@H]2[C@@H]3CCC4=CC(=O)C=C[C@]4(C)[C@@]3(F)[C@@H](O)C[C@]2(C)[C@@]1(O)C(=O)CO [betamethasone]
effect on RBC (RBC): reduces RBC
